Results as given in patent publication US20080031931A1, “ORGANOTELLURIUM AND SELENIUM-BASED ANTIMICROBIAL FORMULATIONS AND ARTICLES” (Andover Healthcare, Inc., priority 2006, published 2008).
Where a name gives a salt, the structure may show the parent alone.

System: Methicillin-Resistant Staphylococcus aureus (MRSa) ATCC 33592
Assay: Time-kill (rate-of-kill) suspension assay against MRSa
Format: cell-based
Text: Analyzing the efficacy of antimicrobial agents may be performed by various suspension and susceptibility methods. This study is designed to examine the rate-of-kill of a test substance against sponsor selected pure cultures of microorganisms. This is accomplished by exposing the target microorganism(s) to the test substance and inspecting the solution for potential survivors at various time periods. The experimental design in this protocol meets these requirements.
A suspension of bacterial cells is exposed to the test substance for specified contact times. After exposure, an aliquot of the suspension is transferred to a neutralizer and assayed for survivors. Appropriate purity, sterility, microorganism population and neutralization controls are performed.
Using a stock culture of the test organism, a culture of the test organism was struck onto the culture medium listed above. The bacterial cultures were incubated for 24-48 hours at 35-37° C. (alternate incubation may be utilized for certain strains). To produce a suspension containing approximately 1×10^8-1×10^9 CFU/mL, the culture suspension was adjusted with Butterfield's Buffer to yield a suspension matching a 0.5 McFarland turbidity standard.
The test substance to be tested was prepared by transferring a 5.95 mL aliquot of the prepared test substance to a sterile vessel for testing procedures. The test substances were assayed for microbial killing activity within 3 hours of preparation.
A […] aliquot of the standardized inoculum was added to the test substance representing the start of the test exposure (time=0 hr). The inoculated test substance was immediately mixed thoroughly using a laboratory vortex mixer or other applicable method. The inoculated and mixed test substance was held at the specified temperature.
A 1.0 mL aliquot of the inoculated test substance was transferred to 9 mL of neutralizer broth (10× dilution) at each of the times indicated. Four additional 1:10 dilutions in Butterfield's Buffer were also prepared. Using a standard microbiological spread plate count procedure, 1.0 mL aliquots of each dilution (10^−1-10^−4) were plated in duplicate to the appropriate recovery media.
A 5.0 mL aliquot of the neutralized sample (10× dilution) was transferred to a sterile 0.2-0.45 μm filter apparatus system pre-wetted with 10 mL sterile diluent. The sample was filter concentrated and the filter was rinsed using ≧50 mL sterile diluent. The filter was then aseptically removed and placed on the surface of the recovery agar medium to determine the percent MRSa survival.
The bacterial subculture plates were incubated for 48±4 hours at 35-37° C. Subculture plates may be refrigerated at 2-8° C. for ≦3 days prior to examination without affecting the results. Following incubation, the subculture tubes and plates were visually examined for growth. The agar plates were enumerated and recorded. Log and percent reductions will be determined for each time point.
As a control for the viability of the test organism, an equivalent volume of untreated inoculum (0.1 mL) is added to 9.9 mL Butterfield's Buffer (same volume as the test substance). This suspension was neutralized as in the test procedure. The suspension was serially diluted and appropriate dilutions plated using standard microbiological techniques. […] The acceptance criteria for this study control is growth and the value is used for calculation purposes.
Test Data CFU/mL: (avg. # colonies found/plate @ dilution used) (dilution factor) (volume of neutralized solution)/(volume plated) Percent Reduction: [1−(test survivors/test population control)]×100 Log10 Reduction: Log10 (test population control)—Log10 (test survivors) Further details of the microbial time-killing studies can be found in: • 1. American Society for Testing and Materials (ASTM). E2315-03, Guide for Assessment of Microbiocidal Activity Using a Time-Kill Procedure, Volume 11.05, Copyright 2005 ASTM International; and • 2. Food and Drug Administration. […]

[1] = 2 hour exposure, room temperature (20° C.), Agent 4 dissolved in DMSO, tested at 1, 10, and 100 mM
[2] = 4 hour exposure, room temperature (20° C.), Agent 4 dissolved in DMSO, tested at 1, 10, and 100 mM
[3] = 6 hour exposure, room temperature (20° C.), Agent 4 dissolved in DMSO, tested at 1, 10, and 100 mM
[4] = 2 hour exposure, room temperature (20° C.), Agent 1 at 82 mM, Agent 2 at 41 mM, Agent 3 at 47 mM, dihydrochloride
[5] = 4 hour exposure, room temperature (20° C.), Agent 1 at 82 mM, Agent 2 at 41 mM, Agent 3 at 47 mM, dihydrochloride
[6] = 6 hour exposure, room temperature (20° C.), Agent 1 at 82 mM, Agent 2 at 41 mM, Agent 3 at 47 mM, dihydrochloride
[7] = 2 hour exposure, room temperature (20° C.), Agent 1 at 82 mM, Agent 2 at 41 mM, Agent 3 at 47 mM, 1.13×10^6 CFU/mL
[8] = 4 hour exposure, room temperature (20° C.), Agent 1 at 82 mM, Agent 2 at 41 mM, Agent 3 at 47 mM
[9] = 6 hour exposure, room temperature (20° C.), Agent 1 at 82 mM, Agent 2 at 41 mM, Agent 3 at 47 mM

SMILES: C=C(C)C(=O)OCC[Se]C#N [2-selenocyanatoethyl methacrylate]
- log10 reduction of MRSa [1]: > 4.1 log10
- reduction of MRSa [1]: > 99.9%
- log10 reduction of MRSa [2]: > 4.1 log10
- reduction of MRSa [2]: > 99.9%
- log10 reduction of MRSa [3]: > 4.1 log10
- reduction of MRSa [3]: > 99.9%

SMILES: NCC[Se][Se]CCN [Agent 1, selenocystamine dihydrochloride]
- reduction of MRSa (2 hour exposure, room temperature (20° C.), Agent 1 at 82 mM, Agent 2 at 41 mM, Agent 3 at 47 mM, 1.13×10^6 CFU/mL, dihydrochloride): 51.3%
- log10 reduction of MRSa [4]: 0.31 log10
- log10 reduction of MRSa [5]: 0.54 log10
- reduction of MRSa [5]: 71.7%
- log10 reduction of MRSa [6]: 1.004 log10
- reduction of MRSa [6]: 90.1%

SMILES: NCC[Se][Se]CCN [Agent 2, selenocystamine dihydrochloride, reference compound]
- reduction of MRSa [7]: 95.5%
- log10 reduction of MRSa [4]: 1.34 log10
- log10 reduction of MRSa [5]: 1.946 log10
- reduction of MRSa [5]: 98.9%
- log10 reduction of MRSa [6]: 2.024 log10
- reduction of MRSa [6]: 99.1%

SMILES: NCC[Te]CCN [Agent 3, 2,2′-tellurodiethanamine 2 HCl]
- log10 reduction of MRSa (2 hour exposure, room temperature (20° C.), Agent 1 at 82 mM, Agent 2 at 41 mM, Agent 3 at 47 mM): 3.4 log10
- reduction of MRSa [7]: > 99.9%
- log10 reduction of MRSa [8]: > 4.1 log10
- reduction of MRSa [8]: > 99.9%
- log10 reduction of MRSa [9]: > 4.1 log10
- reduction of MRSa [9]: > 99.9%

SMILES: O=[Te]([O-])[O-].[K+].[K+] [Test Substance 1, Potassium tellurite, reference compound]
- reduction of MRSa (all time points (exposure times of 2, 4 and 6 hours), starting ~3-4×10^6 CFU/mL MRSA ATCC 33592): very little to no reduction
